Results: patent US20110294874A1, “DIAGNOSIS AND THERAPY OF ORGAN DYSFUNCTION USING SPHINGANINE-1-PHOSPHATE” (The Trustees of Columbia University in the City of New York, priority 2008, published 2011)
Several values for one entry are separate records, joined by “and”; a condition that tells them apart may be missing. Equal entries are not always repeated.

Experiments:
[1] = tested on: C57BL/6 mice subjected to liver IR; test: Liver H&E histology after liver IR (percent necrosis, Suzuki score); format: in vivo, mouse; details: liver IR; for Suzuki score (0 = no injury, 12 = maximal injury): H&E liver
Procedure: (§1) Mice were anesthetized with intraperitoneal pentobarbital (50 mg/kg or to effect). Mice were placed under a heating lamp and on a 37° C. heating pad. After a midline laparotomy and intraperitoneal application of 20 U heparin, left lateral and median lobes of the liver were subjected to ischemia with a microaneurysm clip occluding the hepatic triad above the bifurcation. This method of partial hepatic ischemia results in a segmental (˜70%) hepatic ischemia but spares the right lobe of the liver and prevents mesenteric venous congestion by allowing portal decompression throughout the right and caudate lobes of the liver. The liver was then repositioned in the peritoneal cavity in its original location for 60 minutes. The liver was kept moist with gauze soaked in 0.9% normal saline. The body temperature was monitored by an infrared temperature sensor (Linear Laboratories, Fremont, Calif.) every 10 min. and maintained at 37° C. using a heating lamp and a heating pad. After 60 minutes, the liver was reperfused and the wound closed. Sham-operated mice were subjected to laparotomy and identical liver manipulations without vascular occlusion. Two, 4 and 24 hr after reperfusion, plasma was collected for the measurement of alanine aminotransferase (ALT), a common indicator of liver damage, as well as creatinine (Cr) a common indicator of kidney damage. The liver tissue subjected to IR was collected to measure percent liver necrosis (2, 4 and 24 hr after IR), neutrophil infiltration (with immunohistochemistry, 4 and 24 hr after IR), apoptosis (with terminal deoxynucleotidyl transferase-mediated dUTP nick end labeling staining, caspase 3 immunoblotting and DNA laddering, 24 hr after IR), and inflammation by RT-PCR for pro-inflammatory mRNAs (4 hr after IR).
Livers were also analyzed for the degree of hepatocellular damage using the Suzuki's criteria (Suzuki et al., Transplantation 1993, Vol. 55, pp. 1265-1272). To obtain a Suzuki score, 3 liver injury indices are graded: sinusoidal congestion (0-4), hepatocyte necrosis (0-4), and ballooning degeneration (0-4) are graded for a total score of 0-12. No necrosis, congestion, or centrilobular ballooning is given a score of 0 whereas severe congestion/ballooning and >60% lobular necrosis is given a value of 4.

[2] = tested on: C57BL/6 mice subjected to liver IR; test: Kidney H&E histology after liver IR; format: in vivo, mouse; details: vs vehicle-treated controls
Source text: Liver IR-induced AKI in mice shared similar histological changes observed in human AKI associated with liver failure, as observed in H&E slides of kidney sections taken from the mice (see FIG. 3). Multifocal acute tubular injury including individual cell necrosis involving the juxtamedullary proximal tubules of the S3 segment was observed. […] Endothelial apoptosis of peritubular capillaries was also visible in H&E sections as linear arrays of apoptotic bodies corresponding to the interstitial capillary lining endothelium. […] The number of glomeruli with detectable juxtaglomerular apparatus and the number of cells per juxtaglomerular apparatus were both increased after liver IR, indicating hyperplasia of the juxtaglomerular apparatus. […] Liver IR produced large necrotic areas of liver tissue. The average percentage of necrotic areas in liver samples taken from liver IR mice were 92%±2% (n=6), while no necrosis was found in sham-operated mice. Livers were also analyzed for the degree of hepatocellular damage.

[3] = tested on: C57BL/6 mice subjected to liver IR; test: Neutrophil infiltration into liver and kidney after liver IR; format: in vivo, mouse
Procedure: as §1, with “The liver tissue subjected to IR was collected to measure percent liver necrosis (2, 4 and 24 hr after IR), neutrophil infiltration (with immunohistochemistry, 4 and 24 hr after IR), apoptosis (with terminal deoxynucleotidyl transferase-mediated dUTP nick end labeling staining, caspase 3 immunoblotting and DNA laddering, 24 hr after IR), and inflammation by RT-PCR for pro-inflammatory mRNAs (4 hr after IR).” left out

[4] = tested on: C57BL/6 mice subjected to liver IR; test: Apoptosis (TUNEL, DNA laddering, caspase 3) and F-actin (phalloidin) in liver and kidney after liver IR; format: in vivo, mouse
Procedure: as §1
Apoptosis was detected in both liver and kidney taken from mice subjected to liver IR, through TUNEL staining, DNA laddering and caspase 3 fragmentation.

[5] = tested on: SK1 KO mice subjected to liver IR; test: Liver IR in SK1 KO mice: plasma ALT and creatinine; format: in vivo, mouse; details: SK1KO, hepatic IR 24 h
Procedure: The effects of administering Sg1P (0.1 mg/kg i.v. and 0.2 mg/kg s.c.) on liver and renal injury were also determined in the KO mice and are also shown in Tables 9 and 10 below.

[6] = tested on: Nephrectomized C57BL/6 mice with liver IR; test: Nephrectomized C57BL/6 mice with 45 min. liver IR: serum ALT; format: in vivo, mouse
Procedure: Normally, 1 hour of liver IR results in serum ALT increasing to 15076±1174 U/L (N=6) 24 hours later. In nephrectomized mice, however, the rise in ALT was more severe, and it rose to 20237±2628 U/L (N=3) after only 45 minutes of liver IR. The nephrectomized mice were also less responsive to Sg1P treatment.

IHUVEC monolayers = test: Evans blue dye-albumin permeability of IHUVEC monolayers; format: cell-based, human
Procedure: (§2) IHUVEC—immortalized human umbilical vein endothelial cells (ATCC, P.O. Box 1549 Manassas, Va. 20108) or HRGEC—human renal glomerular endothelial cells (ScienCell Research Laboratories, 6076 Corte Del Cedro Carlsbad, Calif. 92011) were cultured within a humidified atmosphere of 5% CO2 in air and grown to confluence. When confluent, the cells were trypsinized and seeded onto 0.45 μm pore size polycarbonate filters at the base of inserts of 6.5 mm diameter Transwell chambers and cultured until confluence.
Human endothelial cell permeability was assessed with the Evans blue dye extravasation assay (Awad et al., 2006). The permeability characteristics of the resulting confluent monolayers were assessed by following the diffusion of albumin-conjugated Evan's blue dye from the upper to lower compartments of the Transwell chambers. After addition of dye, chambers were shaken and allowed to equilibrate for 10-30 min at 37° C. After equilibration, stimuli were added and dye levels in lower compartments intermittently assayed by spectrophotometric analysis.
The addition of TNF-α or thrombin induces apoptosis and increases cell permeability in cultured endothelial cells.

[7] = tested on: human renal glomerular endothelial cells (HRGEC); test: HRGEC apoptosis, kinase phosphorylation, HSP27 and F-actin; format: cell-based
Procedure: as §2
In further experiments, apoptosis was induced in human renal endothelial (HRGEC) cells with either TNF-α plus cycloheximide or H2O2, with or without Sg1P treatment. In both cases, the addition of Sg1P (1 uM) reduced PARP and caspase 3 fragmentations, which are indices of apoptosis (N=2, data not shown).

[8] = tested on: Sham-operated C57BL/6 mice; test: Sham-operated C57BL/6 mice: plasma ALT and creatinine; format: in vivo, mouse
Procedure: as §1, with “The liver tissue subjected to IR was collected to measure percent liver necrosis (2, 4 and 24 hr after IR), neutrophil infiltration (with immunohistochemistry, 4 and 24 hr after IR), apoptosis (with terminal deoxynucleotidyl transferase-mediated dUTP nick end labeling staining, caspase 3 immunoblotting and DNA laddering, 24 hr after IR), and inflammation by RT-PCR for pro-inflammatory mRNAs (4 hr after IR).” left out

[9] = nephrectomized, 45 min. liver IR

CCCCCCCCCCCCCCC[C@@H](O)[C@@H](N)COP(=O)(O)O [Sg1P, sphinganine-1-phosphate] was tested, and the “Suzuki score (0 = no injury, 12 = maximal injury)” value [1] was 5.2 ± 0.8, the “Suzuki score (0 = no injury, 12 = maximal injury)” value ([1]; listed as sphinganine 1-phosphate) was 5.2±0.8 and the “Average percent necrotic areas in liver” value ([1]; H&E) was 44±8%. For the same molecule, the “Indications of AKI in kidney H&E slides” value [2] was “significantly less indications of AKI”, the “Neutrophils in necrotic areas of the liver” value [3] was 21.8±7.1 neutrophils/field and the “Neutrophils in the kidneys” value [3] was 0.8±0.3 neutrophils/field. The “Caspase 3 fragmentation in liver and kidney” value [4] was “significantly reduced”, the “TUNEL staining, DNA laddering in liver and kidney” value [4] was “significantly reduced” and the “F-actin structure in liver and kidney (phalloidin)” value ([4]; vs vehicle) was “better-preserved F-actin structure”. For the same molecule, the “Creatinine (mean)” value [5] was 0.709 mg/dL, the “ALT (mean)” value ([5]; 0.1 mg/kg i.v. and 0.2 mg/kg s.c.) was 9602.01 U/L and the “Reduction in the severity of liver injury (change in ALT levels)” value ([6]; nephrectomized mice) was 16%. For the same molecule, the “ALT (24 hrs. post-IR), individual mice” value [6, 9] was 15993.65 U/L and 19276.19 U/L and 15819.05 U/L, the “ALT (24 hrs. post-IR), mean” value [6, 9] was 17029±1124 U/L and 17029.63 U/L and the “Thrombin-induced permeability (albumin leak)” value (IHUVEC monolayers; 5 U/ml thrombin) was “same cytoprotective effect”. For the same molecule, the “TNF-α-induced permeability (albumin leak)” value (IHUVEC monolayers; TNF-α 50 ng/ml or 100 ng/ml, concurrent Sg1P) was “reduced the permeability of the cells to levels comparable to control”, the “PARP and caspase 3 fragmentations” value ([7]; 1 uM, apoptosis induced with TNF-α plus cycloheximide or H2O2) was “reduced” and the “Phalloidin staining (F-actin)” value ([7]; HRGEC treated with TNF-α, co-administration) was “restored the phalloidin staining”. For the same molecule, the “HSP27 phosphorylation and total HSP27 expression” value ([7]; HRGEC, 1 μM) was “induced the phosphorylation of HSP27, as well as increased expression of total HSP27”, the “Phosphorylation of ERK and Akt” value ([7]; HRGEC, 1 μM) was “resulted in the phosphorylation” and the “Mean ALT” value [8] was 80 U/L. The “Mean Creatinine” value [8] was 0.46 mg/dL.
